Data reported in US8541395B2 (priority 2009, dated 2013).

Experiments:
Kv1.5 = Kv1.5 (Homo sapiens, UniProt P22460); assay: Patch clamp assay, ion channel inhibition; assay type: cell-based; details: 2000 μM; n=2
Description: (§1) The studies were conducted according to the conventional procedures.
(§2) The exposure duration of each channel was 5 minutes. […] Any left current after exposure to this dose was digitally subtracted to eliminate the contribution of any endogenous current.

KvLQT/minK = target: T1, KvLQT/minK (Homo sapiens, UniProt P51787); assay: Patch clamp assay, ion channel inhibition; assay type: cell-based; details: 30 μM; n=2
T1 construct: expressed in transfected cells
Description: as §1, §2

Kv4.3 = target: T2, Kv4.3 (Homo sapiens, UniProt Q9UK17); assay: Patch clamp assay, ion channel inhibition; details: read-out: Mean % inhibition (positive control)
T2 sequence (Q9UK17 1-655): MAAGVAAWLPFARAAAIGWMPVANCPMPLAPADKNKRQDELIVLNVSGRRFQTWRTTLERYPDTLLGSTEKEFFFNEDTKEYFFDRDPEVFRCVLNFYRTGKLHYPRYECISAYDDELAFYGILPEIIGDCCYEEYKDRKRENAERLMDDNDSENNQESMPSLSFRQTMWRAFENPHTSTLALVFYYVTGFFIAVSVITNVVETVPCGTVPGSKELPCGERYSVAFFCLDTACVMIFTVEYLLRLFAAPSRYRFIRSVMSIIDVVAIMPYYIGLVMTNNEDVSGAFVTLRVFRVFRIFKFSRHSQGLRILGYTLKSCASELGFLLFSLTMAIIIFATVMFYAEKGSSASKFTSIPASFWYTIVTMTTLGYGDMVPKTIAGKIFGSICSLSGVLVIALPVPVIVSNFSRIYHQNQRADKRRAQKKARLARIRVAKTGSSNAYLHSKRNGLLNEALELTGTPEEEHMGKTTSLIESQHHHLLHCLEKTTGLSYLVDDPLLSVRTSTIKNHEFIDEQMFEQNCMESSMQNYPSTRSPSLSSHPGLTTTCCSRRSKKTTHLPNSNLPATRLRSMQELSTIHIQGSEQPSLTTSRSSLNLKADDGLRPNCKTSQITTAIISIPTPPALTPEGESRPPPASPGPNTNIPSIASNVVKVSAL
Description: as §1, §2

right atrium of rats = assay: Chronotropism of isolated rat atrium (frequency of spontaneous contractions); details: 10^−7 M to 10^−4 M; n=6; p>0.05
Description: The right rat atrium was used to assess the chronotropic activity. The values of the spontaneous mechanical activity of the right atrium were expressed in contractions frequency or beats per minute (bpm). The heart rate was 298±50 contractions per minute in the rat right atrium.

male Swiss mice [1] = assay: Hot plate assay
[2] = tested on: rats with sciatic nerve ligature; assay: Chronic constrictive injury (CCI) model, hyperalgesia (Randall & Selitto paw pressure)
[3] = tested on: rats with sciatic nerve ligature; assay: Chronic constrictive injury (CCI) model, allodynia (von Frey); details: for antinociceptive effect on allodynia: p<0.05
male Swiss mice [4] = assay: Formalin assay (intraplantar 4% formalin, phases 1 and 2) in mice
male Swiss mice [5] = assay: Tail flick assay
left atrium of rats = assay: Inotropism of isolated rat atrium (cardiac contraction force)
Description: The left atrium of rats was used to assess the inotropic activity. The data were expressed as contraction force (g of tension), and were compared to the results obtained with bupivacaine.
The application of square pulses (5 V, 5 ms, 2 Hz) in the left atrium with frequency of 120 bpm was sufficient to produce a cardiac contraction force of 0.63±0.09 g of tension.

male Swiss mice [6] = assay: Contortion assay (0.6% acetic acid, abdominal contortions) in mice
Kir3.1/3.4 = target: T3, Kir3.1/3.4 (Homo sapiens, UniProt P48544+P48549); assay: Patch clamp assay, ion channel inhibition; assay type: cell-based; details: 300 μM; n=2
T3 sequence (P48549 1-501): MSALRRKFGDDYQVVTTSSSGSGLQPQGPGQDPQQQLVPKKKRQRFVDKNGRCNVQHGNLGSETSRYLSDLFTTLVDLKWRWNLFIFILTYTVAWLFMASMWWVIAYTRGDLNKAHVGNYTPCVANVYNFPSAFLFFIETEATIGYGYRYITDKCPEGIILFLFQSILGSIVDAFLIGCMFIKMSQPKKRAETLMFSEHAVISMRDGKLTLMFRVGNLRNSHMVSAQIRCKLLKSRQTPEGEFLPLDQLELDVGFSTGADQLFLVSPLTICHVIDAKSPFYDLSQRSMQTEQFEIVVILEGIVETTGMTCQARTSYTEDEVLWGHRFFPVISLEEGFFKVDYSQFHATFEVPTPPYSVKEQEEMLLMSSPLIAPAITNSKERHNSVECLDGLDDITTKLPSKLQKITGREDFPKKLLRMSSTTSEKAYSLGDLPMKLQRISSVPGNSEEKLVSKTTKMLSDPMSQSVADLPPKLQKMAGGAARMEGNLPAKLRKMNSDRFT
T3 sequence (P48544 1-419): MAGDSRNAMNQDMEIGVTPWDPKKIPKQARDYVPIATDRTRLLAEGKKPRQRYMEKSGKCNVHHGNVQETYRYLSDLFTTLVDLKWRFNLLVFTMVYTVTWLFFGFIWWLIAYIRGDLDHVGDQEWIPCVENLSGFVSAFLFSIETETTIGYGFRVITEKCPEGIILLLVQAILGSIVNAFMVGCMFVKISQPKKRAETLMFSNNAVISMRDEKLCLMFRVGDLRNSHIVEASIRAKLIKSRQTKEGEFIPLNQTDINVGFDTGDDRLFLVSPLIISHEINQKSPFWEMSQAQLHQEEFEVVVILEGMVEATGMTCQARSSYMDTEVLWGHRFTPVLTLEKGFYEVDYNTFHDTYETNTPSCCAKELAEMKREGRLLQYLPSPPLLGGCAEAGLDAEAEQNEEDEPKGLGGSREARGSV
Description: as §1, §2

Kir2.1 = target: T4, Kir2.1 (Homo sapiens, UniProt P63252); assay: Patch clamp assay, ion channel inhibition; assay type: cell-based; details: 100 μM; n=2
T4 sequence (P63252 1-427): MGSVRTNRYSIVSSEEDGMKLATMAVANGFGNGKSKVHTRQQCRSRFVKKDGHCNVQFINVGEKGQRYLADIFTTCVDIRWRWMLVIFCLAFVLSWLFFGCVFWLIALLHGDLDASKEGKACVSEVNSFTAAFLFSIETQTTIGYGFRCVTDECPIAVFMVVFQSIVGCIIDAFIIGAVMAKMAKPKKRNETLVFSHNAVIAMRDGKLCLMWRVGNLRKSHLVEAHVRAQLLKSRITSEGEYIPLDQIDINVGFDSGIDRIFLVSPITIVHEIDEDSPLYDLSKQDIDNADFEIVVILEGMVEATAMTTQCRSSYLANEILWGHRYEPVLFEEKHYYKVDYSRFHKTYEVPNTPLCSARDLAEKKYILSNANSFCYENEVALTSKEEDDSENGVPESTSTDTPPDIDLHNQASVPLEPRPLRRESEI

Kir6.2/SUR2A = Kir6.2/SUR2A (Homo sapiens, UniProt O60706+Q14654); assay: Patch clamp assay, ion channel inhibition; assay type: cell-based; details: n=2, read-out: Mean % inhibition (positive control)
Sequence of Kir6.2/SUR2A (Q14654 whole entry): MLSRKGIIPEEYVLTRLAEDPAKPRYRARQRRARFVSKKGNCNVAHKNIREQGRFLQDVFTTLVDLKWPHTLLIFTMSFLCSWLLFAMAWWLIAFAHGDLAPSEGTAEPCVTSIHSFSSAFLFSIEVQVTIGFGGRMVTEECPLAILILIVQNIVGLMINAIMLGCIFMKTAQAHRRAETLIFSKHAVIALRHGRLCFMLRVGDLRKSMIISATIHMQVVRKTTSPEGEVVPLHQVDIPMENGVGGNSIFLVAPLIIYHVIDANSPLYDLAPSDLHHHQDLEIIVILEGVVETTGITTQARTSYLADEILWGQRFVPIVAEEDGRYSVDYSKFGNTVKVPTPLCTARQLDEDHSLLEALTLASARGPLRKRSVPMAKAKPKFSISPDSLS
Sequence of Kir6.2/SUR2A (O60706 whole entry): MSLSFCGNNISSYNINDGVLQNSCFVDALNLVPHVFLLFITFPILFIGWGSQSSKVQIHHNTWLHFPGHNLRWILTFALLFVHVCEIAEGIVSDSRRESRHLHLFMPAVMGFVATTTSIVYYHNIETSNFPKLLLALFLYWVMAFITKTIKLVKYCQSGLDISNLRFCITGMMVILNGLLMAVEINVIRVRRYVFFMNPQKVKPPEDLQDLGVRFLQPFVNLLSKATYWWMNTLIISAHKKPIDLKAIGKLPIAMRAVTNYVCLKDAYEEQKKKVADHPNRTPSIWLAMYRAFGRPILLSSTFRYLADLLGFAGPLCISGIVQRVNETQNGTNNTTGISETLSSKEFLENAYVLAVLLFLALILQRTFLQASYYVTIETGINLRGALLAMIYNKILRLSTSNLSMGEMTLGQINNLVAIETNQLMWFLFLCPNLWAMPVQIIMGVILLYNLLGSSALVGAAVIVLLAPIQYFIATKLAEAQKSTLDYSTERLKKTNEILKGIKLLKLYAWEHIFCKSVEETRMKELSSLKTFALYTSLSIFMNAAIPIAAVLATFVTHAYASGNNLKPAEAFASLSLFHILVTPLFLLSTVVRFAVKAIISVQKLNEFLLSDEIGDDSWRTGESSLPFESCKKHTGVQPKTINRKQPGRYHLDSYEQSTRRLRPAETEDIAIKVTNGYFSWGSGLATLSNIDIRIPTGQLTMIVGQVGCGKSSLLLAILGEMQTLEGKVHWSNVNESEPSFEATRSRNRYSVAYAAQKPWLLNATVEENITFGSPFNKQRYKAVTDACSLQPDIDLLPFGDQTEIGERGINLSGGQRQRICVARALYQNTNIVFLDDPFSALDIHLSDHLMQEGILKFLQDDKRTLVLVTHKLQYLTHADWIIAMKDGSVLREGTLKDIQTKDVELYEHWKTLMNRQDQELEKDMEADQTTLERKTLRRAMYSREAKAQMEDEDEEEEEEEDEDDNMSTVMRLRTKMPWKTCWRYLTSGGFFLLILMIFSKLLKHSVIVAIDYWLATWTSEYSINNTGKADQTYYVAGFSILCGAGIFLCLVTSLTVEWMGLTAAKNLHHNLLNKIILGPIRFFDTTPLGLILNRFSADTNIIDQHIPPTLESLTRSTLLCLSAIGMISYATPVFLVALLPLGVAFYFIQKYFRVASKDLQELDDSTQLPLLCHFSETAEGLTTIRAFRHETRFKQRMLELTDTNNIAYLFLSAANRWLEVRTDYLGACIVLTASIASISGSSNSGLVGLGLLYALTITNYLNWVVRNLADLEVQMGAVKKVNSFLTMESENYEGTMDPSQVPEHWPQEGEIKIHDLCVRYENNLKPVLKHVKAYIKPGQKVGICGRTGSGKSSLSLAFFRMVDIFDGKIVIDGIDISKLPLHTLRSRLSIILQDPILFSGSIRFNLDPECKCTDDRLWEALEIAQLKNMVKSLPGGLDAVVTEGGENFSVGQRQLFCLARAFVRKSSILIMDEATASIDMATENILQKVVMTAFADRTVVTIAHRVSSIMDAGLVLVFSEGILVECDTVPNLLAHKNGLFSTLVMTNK
Description: as §1, §2

Cav3.2 = Cav3.2 (Homo sapiens, UniProt O95180); assay type: cell-based; details: 100 μM; n=2
Description: as §1, §2

[7] = naloxone 5 mg/kg i.p., morphine 10 mg/kg, telocinobufagin 5 mg/kg i.p.

T1 sequence (P51787 whole entry): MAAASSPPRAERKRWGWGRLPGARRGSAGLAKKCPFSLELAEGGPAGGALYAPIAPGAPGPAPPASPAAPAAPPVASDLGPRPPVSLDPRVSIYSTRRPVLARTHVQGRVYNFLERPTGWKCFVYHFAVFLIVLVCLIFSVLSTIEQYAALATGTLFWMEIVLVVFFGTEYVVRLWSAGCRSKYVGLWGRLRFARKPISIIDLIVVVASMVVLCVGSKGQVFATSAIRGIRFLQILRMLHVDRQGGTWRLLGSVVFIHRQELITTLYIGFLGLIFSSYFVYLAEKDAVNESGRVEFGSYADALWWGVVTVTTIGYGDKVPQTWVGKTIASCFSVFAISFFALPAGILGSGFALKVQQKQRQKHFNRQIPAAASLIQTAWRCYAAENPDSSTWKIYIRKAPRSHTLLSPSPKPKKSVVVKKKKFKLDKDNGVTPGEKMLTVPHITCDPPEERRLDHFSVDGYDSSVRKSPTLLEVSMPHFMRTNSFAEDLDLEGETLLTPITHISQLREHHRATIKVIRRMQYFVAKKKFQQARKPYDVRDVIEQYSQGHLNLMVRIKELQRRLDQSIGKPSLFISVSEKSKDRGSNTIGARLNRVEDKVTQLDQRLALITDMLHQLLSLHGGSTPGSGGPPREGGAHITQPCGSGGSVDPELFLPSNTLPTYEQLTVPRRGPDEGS
Sequence of Kv1.5 (P22460 whole entry): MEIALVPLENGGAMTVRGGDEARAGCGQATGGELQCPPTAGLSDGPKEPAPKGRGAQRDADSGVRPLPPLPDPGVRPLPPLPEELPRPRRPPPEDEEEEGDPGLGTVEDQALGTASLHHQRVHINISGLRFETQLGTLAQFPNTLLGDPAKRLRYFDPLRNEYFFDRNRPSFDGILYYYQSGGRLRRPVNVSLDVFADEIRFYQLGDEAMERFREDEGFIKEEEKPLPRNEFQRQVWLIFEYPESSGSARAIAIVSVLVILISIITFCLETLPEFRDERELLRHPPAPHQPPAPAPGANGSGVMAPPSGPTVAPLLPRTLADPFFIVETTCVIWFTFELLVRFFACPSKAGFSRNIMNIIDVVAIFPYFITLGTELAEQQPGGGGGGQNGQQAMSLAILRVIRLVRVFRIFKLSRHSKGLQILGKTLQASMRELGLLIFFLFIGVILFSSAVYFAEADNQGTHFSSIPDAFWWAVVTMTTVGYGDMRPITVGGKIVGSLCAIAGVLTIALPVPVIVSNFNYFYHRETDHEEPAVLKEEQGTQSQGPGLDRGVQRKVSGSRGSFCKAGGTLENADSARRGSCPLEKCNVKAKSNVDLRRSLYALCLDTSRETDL

In the case of `Nc1ccncc1` [4-AP], the “Mean % inhibition (positive control)” value (Kv1.5) is reported as 85.1%.
With `CCS(=O)(=O)N(C)[C@H]1c2cc(C#N)ccc2OC(C)(C)[C@@H]1O` [Chromanol-293B] the “Mean % inhibition (positive control)” value (KvLQT/minK) was 87.8%.
With `O=C(NCC1CCCCN1)c1cc(OCC(F)(F)F)ccc1OCC(F)(F)F` (centres unmarked) [Flecainide] the inhibition at 100 µM (Kv4.3) was 96.1%.
In the case of `C[C@]12CC[C@H](O)C[C@@]1(O)CC[C@@H]1[C@@H]2CC[C@]2(C)[C@@H](c3ccc(=O)oc3)CC[C@]12O` [telocinobufagin, (3β,5β)-3,5,14-trihydroxy-bufa-20,22-dienolide], the “alteration of the spontaneous mechanical cardiac activity compared to the control” value (right atrium of rats) is reported as “no significant alteration”, the “effect of naloxone on the analgesic action” value (male Swiss mice [1]; naloxone 5 mg/kg i.p., morphine dose printed as 'mg/kg', telocinobufagin 5 mg/kg oral) is reported as “did not block” and the “increase of the response (latency) compared to control group” value (male Swiss mice [1]; oral, dose printed as 'mg/kg' without figure, p<0.001) is reported as “approximately 450%”. For the same molecule, the “duration of the analgesic effects on hyperalgesia” value ([2]; intraperitoneal 5 mg/kg) was “around 6 hours”, the “increase of the response compared to the control group (RPtest), hyperalgesia” value ([2]; intraperitoneal 5 mg/kg, p<0.001) was “approximately 9 times” and the “effect of naloxone on the analgesic action, hyperalgesia” value [2, 7] was “did not block significantly”. The “duration of the analgesic effects on hyperalgesia” value ([2]; oral 20 mg/kg) was “around 6 hours”, the “increase of the response compared to the control group (RPtest), hyperalgesia” value ([2]; oral 20 mg/kg, p<0.05) was about 3.9 times and the “antinociceptive effect, mol to mol, greater than that of morphine, hyperalgesia” value ([2]; telocinobufagin 5 mg/kg i.p. (20 mg/kg oral) vs morphine sulfate 10 mg/kg i.p.) was “approximately 900%”. For the same molecule, the “antinociceptive effect compared to the other analgesics, hyperalgesia” value ([2]; vs diclofenac, codeine, dipyrone, amitriptyline, carbamazepine, prednisone, p<0.05) was “pretty much superior to that of the other analgesics”, the “antinociceptive effect on allodynia” value ([3]; 5 mg/kg i.p.) was “blocking completely the allodynia” and the “antinociceptive effect on allodynia” value ([3]; 20 mg/kg oral) was “blocking completely the allodynia”. For the same molecule, the “duration of the analgesic effects on allodynia” value ([3]; intraperitoneal 5 mg/kg) was “around 6 hours”, the “reversion of the allodynia (compared to RP)” value ([3]; intraperitoneal TBC 5 mg/kg) was “reverted completely the allodynia” and the “effect of naloxone on the analgesic action, allodynia” value [3, 7] was “did not block significantly”. The “duration of the analgesic effects on allodynia” value ([3]; oral 20 mg/kg) was “around 6 hours”, the “reversion of the allodynia (compared to RP)” value ([3]; oral TBC 20 mg/kg) was “reverted completely the allodynia” and the “antinociceptive effect compared to the other analgesics, phase 1” value (male Swiss mice [4]; phase 1, 10 mg/kg oral vs diclofenac 50, dipyrone 50, codeine 20 mg/kg i.p., p<0.05) was “pretty much superior to that of the other analgesics”. The “licks blocked compared to the control group, phase 1” value (male Swiss mice [4]; phase 1, 10 mg/kg oral, p<0.005) was about 80%, the “effect of naloxone on the analgesic action, phase 1” value (male Swiss mice [4]; phase 1, naloxone 5 mg/kg i.p., morphine 10 mg/kg, telocinobufagin 5 mg/kg oral) was “did not block” and the “antinociceptive effect, mol to mol, greater than that of morphine, phase 1” value (male Swiss mice [4]; phase 1, telocinobufagin 10 mg/kg oral vs morphine sulfate 10 mg/kg i.p.) was about 40%. The “antinociceptive effect compared to the other analgesics, phase 2” value (male Swiss mice [4]; phase 2, 5 mg/kg oral vs diclofenac 50, dipyrone 50, codeine 20 mg/kg i.p., p<0.05) was “pretty much superior to that of the other analgesics”, the “licks blocked compared to the control group, phase 2” value (male Swiss mice [4]; phase 2, 10 mg/kg oral, p<0.0001) was about 100% and the “effect of naloxone on the analgesic action, phase 2” value (male Swiss mice [4]; phase 2, naloxone 5 mg/kg i.p., morphine 10 mg/kg, telocinobufagin 5 mg/kg oral) was “did not block”. For the same molecule, the “antinociceptive effect, mol to mol, greater than that of morphine, phase 2” value (male Swiss mice [4]; phase 2, telocinobufagin 5 mg/kg oral vs morphine sulfate 10 mg/kg i.p.) was about 58%, the “antinociceptive effect (tail flick latency)” value (male Swiss mice [5]; doses of 2.5 and 5 mg/kg oral, p<0.05) was “significant antinociceptive effects” and the “effect of naloxone on the analgesic action” value (male Swiss mice [5]; naloxone 5 mg/kg i.p., morphine 10 mg/kg, telocinobufagin 5 mg/kg oral) was “did not block”. For the same molecule, the “solubility in 50% DMSO” value (Solubility; 50% DMSO (v/v in water)) was “soluble”, the solubility in ethanol (Solubility; ethanol (100%)) was “soluble” and the solubility in chloroform (Solubility; pure chloroform) was “soluble”. The solubility in water (Solubility; water) was “insoluble”, the “alteration of the cardiac contraction force” value (left atrium of rats; 10^−3 M during 12 minutes, p>0.05) was “did not produce significant alteration” and the “alteration of the cardiac contraction force compared to the control” value (left atrium of rats; 10^−7 to 10^−4 M) was “no significant alteration”. The “antinociceptive effect compared to the other analgesics” value (male Swiss mice [6]; 10 mg/kg oral vs diclofenac 50, dipyrone 50, codeine 20 mg/kg i.p., p<0.05) was “pretty much superior to the effects of the other analgesics”, the “contortions blocked compared to the control group” value (male Swiss mice [6]; 10 mg/kg oral, mice, p<0.001) was about 90% and the “effect of naloxone on the analgesic action” value (male Swiss mice [6]; naloxone 5 mg/kg i.p., morphine 10 mg/kg i.p., telocinobufagin 10 mg/kg oral) was “did not block”. The “antinociceptive effect, mol to mol, greater than that of morphine” value (male Swiss mice [6]; telocinobufagin 10 mg/kg oral vs morphine sulfate 10 mg/kg i.p.) was about 40%.
For `[Ba]` [Barium], the “Mean % inhibition (positive control)” value (Kir3.1/3.4) was 86.6% and the “Mean % inhibition (positive control)” value (Kir2.1) was 85.4%.
In the case of `COc1ccc(Cl)cc1C(=O)NCCc1ccc(S(=O)(=O)NC(=O)NC2CCCCC2)cc1` [Glibenclamide], the inhibition at 1 µM (Kir6.2/SUR2A) is reported as 79.8%.
For `[Ni]` [Nickel], the “Mean % inhibition (positive control)” value (Cav3.2) was 76.6%.
